Consider 31 compounds from patent US12060333B2 (Hoffmann-La Roche Inc., priority 2021, dated 2024).

One may read the IC50 as the point on the concentration scale where inhibition reaches its midpoint.

One assay deals with SARS-CoV-2 3CLpro (Severe acute respiratory syndrome coronavirus 2, UniProt P0DTD1). Description: biochemical. Particulars: IC50 (μM), SARS-CoV-2 3CLPro assay.
`CC(C)C[C@H](NC(=O)c1cc2cc(Cl)ccc2[nH]1)C(=O)NN(CCC(N)=O)C(=O)[C@H](F)Cl` (racemic) [Example 58-B, 5-chloro-N-[rac-(1S)-1-[[(3-amino-3-oxo-propyl)-[rac-(2R)-2-chloro-2-fluoro-acetyl]amino]carbamoyl]-3-methyl-butyl]-1H-indole-2-carboxamide] came in with an IC50 of 0.007 µM.

Consider `NC(=O)CCN(NC(=O)[C@H](CC1CCCCC1)NC(=O)OCc1ccccc1)C(=O)[C@@H](F)Cl` (single isomer, unassigned) [Example 16-A], for which the concentration for half-maximal inhibition (IC50) was determined as 0.053 µM.

In turn, `CC(C)C[C@H](NC(=O)c1nc2ccccc2[nH]1)C(=O)NN(CCC(N)=O)C(=O)[C@@H](F)Cl` (single isomer, unassigned) [Example 63-A] showed an IC50 of 0.043 µM.

The compound `NC(=O)CCN(NC(=O)[C@H](CC1CCC1)NC(=O)c1nc2ccccc2[nH]1)C(=O)C(F)Cl` (mixture of isomers) [Example 66, N-[rac-(1S)-2-[2-(3-amino-3-oxo-propyl)-2-(2-chloro-2-fluoro-acetyl)hydrazino]-1-(cyclobutylmethyl)-2-axo-ethyl]-1H-benzimidazole-2-carboxamide] registered an IC50 of 0.034 µM.

Compound `NC(=O)CCN(NC(=O)[C@H](CC1CC1)NC(=O)c1cc2ccccc2[nH]1)C(=O)C(F)Cl` (mixture of isomers) [Example 62, N-[rac-(1S)-2-[2-(3-amino-3-oxo-propyl)-2-(2-chloro-2-fluoro-acetyl)hydrazino]-1-(cyclopropylmethyl)-2-axo-ethyl]-1H-indole-2-carboxamide] displayed an IC50 of 0.017 µM.

Consider `CC(C)C[C@H](NC(=O)c1cc2c(Cl)cccc2[nH]1)C(=O)NN(CCC(N)=O)C(=O)[C@H](F)Cl` (single isomer, unassigned) [Example 53-B], for which the IC50 was 0.025 µM.

`COc1cccc2[nH]c(C(=O)N[C@@H](CC(C)C)C(=O)NN(CCC(N)=O)C(=O)CCl)cc12` [Example 27, 4-Methoxy-N-[(1S)-1-[[(3-amino-3-oxo-propyl)-(2-chloroacetyl)amino]carbamoyl]-3-methyl-butyl]-1H-indole-2-carboxamide]: the IC50 is 0.006 µM.

Compound `Cc1cc(C(=O)NC(CC(C)C)C(=O)NN(CCC(N)=O)C(=O)C(F)Cl)no1` (racemic) [Example 97, 5-Methyl-N-[rac-(1S)-1-[[(3-amino-3-oxo-propyl)-(2-chloro-2-fluoro-acetyl)amino]carbamoyl]-3-methyl-butyl]isoxazole-3-carboxamide] had an IC50 of 0.91 µM.

Consider `CC(C)C[C@H](NC(=O)OCc1ccccc1)C(=O)NN(CCC(N)=O)C(=O)[C@H](F)Cl` (single isomer, unassigned) [Example 17-B], for which the IC50 turned out to be 0.077 µM.

As to `NC(=O)CCN(NC(=O)[C@H](CC1CCCCC1)NC(=O)OCc1ccccc1)C(=O)C(F)Cl` (stereo partly drawn) [Example 16, Benzyl N-[(1S)-2-[2-(3-amino-3-oxo-propyl)-2-(2-chloro-2-fluoro-acetyl)hydrazino]-1-(cyclohexylmethyl)-2-axo-ethyl]carbamate], the midpoint of inhibition, the IC50, lay at 0.009 µM.

Compound `NC(=O)CCN(NC(=O)[C@H](CC1CCC1)NC(=O)c1cnccn1)C(=O)C(F)Cl` (mixture of isomers) [Example 79, N-[rac-(1S)-2-[2-(3-amino-3-oxo-propyl)-2-(2-chloro-2-fluoro-acetyl)hydrazino]-1-(cyclobutylmethyl)-2-axo-ethyl]pyrazine-2-carboxamide] gave an IC50 of 0.15 µM.

`NC(=O)CCN(NC(=O)[C@H](CC1CCCCC1)NC(=O)c1cn2ccccc2n1)C(=O)C(F)Cl` (mixture of isomers) [Example 82, N-[rac-(1S)-2-[2-(3-amino-3-oxo-propyl)-2-(2-chloro-2-fluoro-acetyl)hydrazino]-1-(cyclohexylmethyl)-2-axo-ethyl]imidazo[1,2-a]pyridine-2-carboxamide] displayed an IC50 of 0.043 µM.

`CC(C)C[C@H](NC(=O)c1cc2cc(F)ccc2[nH]1)C(=O)NN(CCC(N)=O)C(=O)[C@@H](F)Cl` (racemic) [Example 57-A, 5-fluoro-N-[rac-(1S)-1-[[(3-amino-3-oxo-propyl)-[rac-(2S)-2-chloro-2-fluoro-acetyl]amino]carbamoyl]-3-methyl-butyl]-1H-indole-2-carboxamide] returned an IC50 of 0.067 µM.

As for `CC(C)(C)C[C@H](NC(=O)c1cnccn1)C(=O)NN(CCC(N)=O)C(=O)C(F)Cl` (stereo partly drawn) [Example 78, N-[rac-(1S)-1-[[(3-amino-3-oxo-propyl)-(2-chloro-2-fluoro-acetyl)amino]carbamoyl]-3,3-dimethyl-butyl]pyrazine-2-carboxamide], the IC50 stood at 0.25 µM.

With `COc1cccc(NCC(=O)N[C@@H](CC(C)C)C(=O)NN(CCC(N)=O)C(=O)[C@@H](F)Cl)c1` (single isomer, unassigned) [Example 83-B], the IC50 turned out to be 0.06 µM.

On to `NC(=O)CCN(NC(=O)[C@H](CC1CCCCC1)NC(=O)OCc1ccccc1)C(=O)[C@H](F)Cl` (single isomer, unassigned) [Example 16-B], for which the IC50 came to 0.002 µM.

The compound `NC(=O)CCN(NC(=O)[C@H](CC12CC(C1)C2)NC(=O)c1nc2ccccc2[nH]1)C(=O)C(F)Cl` (mixture of isomers) [Example 67, N-[rac-(1S)-2-[2-(3-amino-3-oxo-propyl)-2-(2-chloro-2-fluoro-acetyl)hydrazino]-1-(1-bicyclo[1.1.1]pentanylmethyl)-2-axo-ethyl]-1H-benzimidazole-2-carboxamide] had an IC50 of 0.023 µM.

Turning to `CC(C)C[C@H](NC(=O)c1cc2cc(Cl)ccc2[nH]1)C(=O)NN(CCC(N)=O)C(=O)[C@@H](F)Cl` (racemic) [Example 58-A, 5-Chloro-N-[rac-(1S)-1-[[(3-amino-3-oxo-propyl)-[rac-(2S)-2-chloro-2-fluoro-acetyl]amino]carbamoyl]-3-methyl-butyl]-1H-indole-2-carboxamide], the IC50 came to 0.032 µM.

Staying with this assay, now noted: read-out: IC50 (μM), SARS-CoV-2 3CLPro assay.
Regarding `NC(=O)CCN(NC(=O)[C@H](CC1CCCCC1)NC(=O)c1cc2ccccc2[nH]1)C(=O)CF` [Example 36, N-[(1S)-2-[2-(3-Amino-3-axo-propyl)-2-(2-fluoroacetyl)hydrazino]-1-(cyclohexylmethyl)-2-axo-ethyl]-1H-indole-2-carboxamide], the IC50 amounted to 0.14 µM.

Turning to `CC(C)C[C@@H](C(=O)NN(CCC(N)=O)C(=O)CCl)N(C)C(=O)c1cc2ccccc2[nH]1` [Example 40, N-[(1S)-1-[[(3-Amino-3-axo-propyl)-(2-chloroacetyl)amino]carbamoyl]-3-methyl-butyl]-N-methyl-1H-indole-2-carboxamide], the IC50 is 0.007 µM.

Regarding `CC(C)C[C@H](NC(=O)OCc1ccccc1)C(=O)NN(Cc1cc[nH]n1)C(=O)CCl` [Example 23, Benzyl N-[(1S)-1-[[(2-chloroacetyl)-(1H-pyrazol-3-ylmethyl)amino]carbamoyl]-3-methyl-butyl]carbamate], the IC50 was 0.034 µM.

As for `CC(C)C[C@H](NC(=O)c1cc2cccnc2[nH]1)C(=O)NN(CCC(N)=O)C(=O)CCl` [Example 44, N-[(1S)-1-[[(3-Amino-3-oxo-propyl)-(2-chloroacetyl)amino]carbamoyl]-3-methyl-butyl]-1H-pyrrolo[2,3-b]pyridine-2-carboxamide], the IC50 came out at 0.017 µM.

On to `NC(=O)CCN(NC(=O)CNC(=O)OCc1ccccc1)C(=O)CCl` [Example 1, Benzyl N-[2-[2-(3-amino-3-oxo-propyl)-2-(2-chloroacetyl)hydrazino]-2-axo-ethyl]carbamate], for which the IC50 worked out at 4.59 µM.

As for `NC(=O)CCN(NC(=O)[C@H](CC1CCCCC1)NC(=O)OCc1ccccc1)C(=O)CF` [Example 15, Benzyl N-[(1S)-2-[2-(3-amino-3-oxo-propyl)-2-(2-fluoroacetyl)hydrazino]-1-(cyclohexylmethyl)-2-axo-ethyl]carbamate], the concentration for half-maximal inhibition (IC50) was found to be 1.2 µM.

Regarding `NC(=O)CCN(NC(=O)[C@H](CC1CCCCC1)NC(=O)c1cc2ccccc2[nH]1)C(=O)[C@@H](F)Cl` [Example 59-A, N-[(1S)-2-[2-(3-amino-3-oxo-propyl)-2-[(2S)-2-chloro-2-fluoro-acetyl]hydrazino]-1-(cyclohexylmethyl)-2-axo-ethyl]-1H-indole-2-carboxamide], the half-inhibitory concentration (IC50) was determined as 0.023 µM.

Consider `CC(C)C[C@H](NC(=O)c1nc2ccccc2[nH]1)C(=O)NN(CCC(N)=O)C(=O)CCl` [Example 42, N-[(1S)-1-[[(3-Amino-3-axo-propyl)-(2-chloroacetyl)amino]carbamoyl]-3-methyl-butyl]-1H-benzimidazole-2-carboxamide], for which the IC50 was determined as 0.005 µM.

With `NC(=O)CCN(NC(=O)[C@H](CC1CCCCC1)NC(=O)/C=C/c1ccc(Cl)cc1F)C(=O)CCl` [Example 33, 3-[(2-Chloroacetyl)-[[(2S)-2-[[(E)-3-(4-chloro-2-fluoro-phenyl)prop-2-enoyl]amino]-3-cyclohexyl-propanoyl]amino]amino]propanamide], the IC50 came to 0.002 µM.

In the case of `CCC(Cl)C(=O)N(CCC(N)=O)NC(=O)[C@H](CC(C)C)NC(=O)OCc1ccccc1` (stereo partly drawn) [Example 5, Benzyl N-[(1S)-1-[[(3-amino-3-oxo-propyl)-(2-chlorobutanoyl)amino]carbamoyl]-3-methyl-butyl]carbamate], the IC50 was 1.76 µM.

For the compound `NC(=O)CCN(NC(=O)[C@H](CC1CC1)NC(=O)OCc1ccccc1)C(=O)CCl` [Example 11, Benzyl N-[(1S)-2-[2-(3-amino-3-oxo-propyl)-2-(2-chloroacetyl)hydrazino]-1-(cyclopropylmethyl)-2-axo-ethyl]carbamate], the IC50 was 0.023 µM.

As to `CC(C)C[C@H](NC(=O)c1ccon1)C(=O)NN(CCC(N)=O)C(=O)CCl` [Example 43, N-[(1S)-1-[[(3-Amino-3-oxo-propyl)-(2-chloroacetyl)amino]carbamoyl]-3-methyl-butyl]isoxazole-3-carboxamide], the IC50 is 0.036 µM.

`CC(C)C[C@H](NC(=O)c1cc2ccccn2n1)C(=O)NN(CCC(N)=O)C(=O)C(F)Cl` (mixture of isomers) [Example 90, N,N-[rac-(1S)-1-[[(3-amino-3-oxo-propyl)-(2-chloro-2-fluoro-acetyl)amino]carbamoyl]-3-methyl-butyl]pyrazolo[1,5-a]pyridine-2-carboxamide]: the IC50 was determined as 0.073 µM.
